Experimental data taken from patent US20020035061A1, “COMPOSITIONS AND METHODS FOR TREATING INFECTIONS USING CATIONIC PEPTIDES ALONE OR IN COMBINATION WITH ANTIBIOTICS” (priority 1996, published 2002).
Converted amounts (≈) assume the structure as drawn. Read-outs that look alike come from different tables or passages of the source.

Assays:
Experiment in all cases: microbe, parasite or virus in culture
Type in all cases: cell-based
bacterial isolates = tested on: bacterial isolates
[1] = tested on: inherently resistant microorganisms
[2] = tested on: microorganisms with acquired resistance
S. aureus = conditions: Staphylococcus aureus; S. aureus SBSA4; read-out: Mupirocin MIC Alone

C/C(=C\C(=O)OCCCCCCCCC(=O)O)C[C@@H]1OC[C@H](C[C@@H]2O[C@H]2[C@@H](C)[C@H](C)O)[C@@H](O)[C@H]1O [Mupirocin]
MIC (bacterial isolates; Escherichia coli, read-out: Mupirocin MIC Alone, E. coli ECO1): > 100 µg/mL | MIC (bacterial isolates; Escherichia coli, read-out: Mupirocin MIC Alone, E. coli ECO2): 100 µg/mL (≈ 200 µM) | MIC (bacterial isolates; Escherichia coli, read-out: Mupirocin MIC Alone, E. coli ECO3): 100 µg/mL (≈ 200 µM) | MIC (bacterial isolates; Escherichia coli, read-out: Mupirocin MIC Alone, E. coli ECO5): 100 µg/mL (≈ 200 µM) | MIC (bacterial isolates; Escherichia coli, read-out: Mupirocin MIC Alone, E. coli SBECO1): 100 µg/mL (≈ 200 µM) | MIC (bacterial isolates; Escherichia coli, read-out: Mupirocin MIC Alone, E. coli SBECO2): > 100 µg/mL | MIC (bacterial isolates; Pseudomonas aeruginosa, read-out: Mupirocin MIC Alone, P. aeruginosa PA2): > 100 µg/mL | MIC (bacterial isolates; Pseudomonas aeruginosa, read-out: Mupirocin MIC Alone, P. aeruginosa PA3): > 100 µg/mL | MIC (bacterial isolates; Pseudomonas aeruginosa, read-out: Mupirocin MIC Alone, P. aeruginosa PA4): > 100 µg/mL | MIC (bacterial isolates; Pseudomonas aeruginosa, read-out: Mupirocin MIC Alone, P. aeruginosa SBPA1): > 100 µg/mL | MIC (bacterial isolates; Serratia marcescens, read-out: Mupirocin MIC Alone, S. marcescens SBSM1): > 100 µg/mL | MIC (bacterial isolates; Serratia marcescens, read-out: Mupirocin MIC Alone, S. marcescens SBSM2): > 100 µg/mL | MIC (bacterial isolates; Staphylococcus aureus, read-out: Mupirocin MIC Alone, S. aureus SBSA3): 100 µg/mL (≈ 200 µM) | MIC (bacterial isolates; Staphylococcus aureus, read-out: Mupirocin MIC Alone, S. aureus SBSA4): > 100 µg/mL | MIC ([1]; Escherichia coli, read-out: Mupirocin MIC Alone, E. coli): 100 µg/mL (≈ 200 µM) | MIC ([1]; Pseudomonas aeruginosa, read-out: Mupirocin MIC + Peptide, P. aeruginosa, peptide MBI 28): 3 µg/mL | MIC ([1]; Pseudomonas aeruginosa, read-out: Mupirocin MIC + Peptide, P. aeruginosa, peptide MBI 29A3): 0.1 µg/mL | MIC ([1]; Pseudomonas aeruginosa, read-out: Mupirocin MIC Alone, P. aeruginosa): > 100 µg/mL | MIC ([1]; read-out: Mupirocin MIC + Peptide, E. coli, peptide MBI 11B4CN): 3 µg/mL | MIC ([1]; read-out: Mupirocin MIC + Peptide, E. coli, peptide MBI 11D18CN): 1 µg/mL | MIC ([1]; read-out: Mupirocin MIC + Peptide, E. coli, peptide MBI 21A1): 3 µg/mL | MIC ([1]; read-out: Mupirocin MIC + Peptide, E. coli, peptide MBI 26): 3 µg/mL | MIC ([1]; read-out: Mupirocin MIC + Peptide, E. coli, peptide MBI 28): 0.1 µg/mL | MIC comb. (antibiotic agent) ([2]; E. faecium, with MBI 11CN): 0.1 µg/mL (≈ 0.2 µM) | MIC comb. (antibiotic agent) ([2]; E. faecium, with MBI 11G13CN): 0.1 µg/mL (≈ 0.2 µM) | MIC ([2]; Enterococcus faecium, read-out: MIC alone (antibiotic agent), E. faecium): 100 µg/mL (≈ 200 µM) | MIC comb. (antibiotic agent) ([2]; S. aureus, with MBI 11A1CN): 1 µg/mL (≈ 2 µM) | MIC comb. (antibiotic agent) ([2]; S. aureus, with MBI 11CN): 0.1 µg/mL (≈ 0.2 µM) | MIC comb. (antibiotic agent) ([2]; S. aureus, with MBI 11D18CN): 0.1 µg/mL (≈ 0.2 µM) | MIC comb. (antibiotic agent) ([2]; S. aureus, with MBI 11F1CN): 3 µg/mL (≈ 5.99 µM) | MIC comb. (antibiotic agent) ([2]; S. aureus, with MBI 21A1): 0.1 µg/mL (≈ 0.2 µM) | MIC comb. (antibiotic agent) ([2]; S. aureus, with MBI 21A2): 0.1 µg/mL (≈ 0.2 µM) | MIC comb. (antibiotic agent) ([2]; S. aureus, with MBI 21A10): 0.3 µg/mL (≈ 0.599 µM) | MIC comb. (antibiotic agent) ([2]; S. aureus, with MBI 26): 0.1 µg/mL (≈ 0.2 µM) | MIC comb. (antibiotic agent) ([2]; S. aureus, with MBI 29A3): 0.1 µg/mL (≈ 0.2 µM) | MIC ([2]; Staphylococcus aureus, read-out: MIC alone (antibiotic agent), S. aureus): > 100 µg/mL | MIC (S. aureus): > 100 µg/mL
